# Data from PubChem BioAssay (NCI).
#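 Method: 48-hour compound exposure of cells in 96-well plates, five concentrations, linear interpolation of endpoints. Here, GI50 denotes the concentration required for 50% inhibition of growth. TGI is the concentration that stops growth completely.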
# Columns and labels:
# Assay in all cases: DTP human tumour cell line panel, 48 h
# 786-0 renal = system: 786-0 renal
# A498 renal = system: A498 renal
# A549 NSCLC = system: A549 NSCLC
# ACHN renal = system: ACHN renal
# BT-549 breast = system: BT-549 breast
# CAKI-1 renal = system: CAKI-1 renal
# CCRF-CEM leukemia = system: CCRF-CEM leukemia
# COLO 205 colon = system: COLO 205 colon
# DU-145 prostate = system: DU-145 prostate
# EKVX NSCLC = system: EKVX NSCLC
# HCC-2998 colon = system: HCC-2998 colon
# HCT-116 colon = system: HCT-116 colon
# HCT-15 colon = system: HCT-15 colon
# HOP-62 NSCLC = system: HOP-62 NSCLC
# HOP-92 NSCLC = system: HOP-92 NSCLC
# HS 578T breast = system: HS 578T breast
# HT29 colon = system: HT29 colon
# IGROV1 ovarian = system: IGROV1 ovarian
# K-562 leukemia = system: K-562 leukemia
# KM12 colon = system: KM12 colon
# M14 melanoma = system: M14 melanoma
# MALME-3M melanoma = system: MALME-3M melanoma
# MCF7 breast = system: MCF7 breast
# MDA-MB-231 breast = system: MDA-MB-231 breast
# MDA-MB-435 = system: MDA-MB-435
# MOLT-4 leukemia = system: MOLT-4 leukemia
# NCI-H226 lung = system: NCI-H226 lung
# NCI-H23 lung = system: NCI-H23 lung
# NCI-H460 lung = system: NCI-H460 lung
# NCI/ADR-RES ovarian = system: NCI/ADR-RES ovarian
# OVCAR-3 ovarian = system: OVCAR-3 ovarian
# OVCAR-4 ovarian = system: OVCAR-4 ovarian
# OVCAR-5 ovarian = system: OVCAR-5 ovarian
# OVCAR-8 ovarian = system: OVCAR-8 ovarian
# PC-3 prostate = system: PC-3 prostate
# RPMI-8226 leukemia = system: RPMI-8226 leukemia
# RXF 393 renal = system: RXF 393 renal
# SF-268 CNS = system: SF-268 CNS
# SF-295 CNS = system: SF-295 CNS
# SK-MEL-2 melanoma = system: SK-MEL-2 melanoma
# SK-MEL-28 melanoma = system: SK-MEL-28 melanoma
# SK-MEL-5 melanoma = system: SK-MEL-5 melanoma
# SK-OV-3 ovarian = system: SK-OV-3 ovarian
# SN12C renal = system: SN12C renal
# SNB-19 CNS = system: SNB-19 CNS
# SNB-75 CNS = system: SNB-75 CNS
# SR leukemia = system: SR leukemia
# SW-620 colon = system: SW-620 colon
# T-47D breast = system: T-47D breast
# TK-10 renal = system: TK-10 renal
# U251 CNS = system: U251 CNS
# UACC-257 melanoma = system: UACC-257 melanoma
# UACC-62 melanoma = system: UACC-62 melanoma
# UO-31 renal = system: UO-31 renal
# LOX IMVI melanoma = system: LOX IMVI melanoma
# NCI-H522 lung = system: NCI-H522 lung
# SF-539 CNS = system: SF-539 CNS
compound,measurement,setting,value
COc1ccc2[nH]c(C(O)(Cc3cccnc3)Cc3cccnc3)cc2c1,TGI,786-0 renal,> 100 µM
same,TGI,A498 renal,> 100 µM
same,TGI,A549 NSCLC,> 100 µM
same,TGI,ACHN renal,> 100 µM
same,TGI,BT-549 breast,> 100 µM
same,TGI,CAKI-1 renal,> 100 µM
same,TGI,CCRF-CEM leukemia,> 100 µM
same,TGI,COLO 205 colon,> 100 µM
same,TGI,DU-145 prostate,> 100 µM
same,TGI,EKVX NSCLC,> 100 µM
same,TGI,HCC-2998 colon,> 100 µM
same,TGI,HCT-116 colon,> 100 µM
same,TGI,HCT-15 colon,> 100 µM
same,TGI,HOP-62 NSCLC,> 100 µM
same,TGI,HOP-92 NSCLC,> 100 µM
same,TGI,HS 578T breast,> 100 µM
same,TGI,HT29 colon,> 100 µM
same,TGI,IGROV1 ovarian,> 100 µM
same,TGI,K-562 leukemia,> 100 µM
same,TGI,KM12 colon,> 100 µM
same,TGI,M14 melanoma,> 100 µM
same,TGI,MALME-3M melanoma,> 100 µM
same,TGI,MCF7 breast,> 100 µM
same,TGI,MDA-MB-231 breast,> 100 µM
same,TGI,MDA-MB-435,> 100 µM
same,TGI,MOLT-4 leukemia,> 100 µM
same,TGI,NCI-H226 lung,> 100 µM
same,TGI,NCI-H23 lung,> 100 µM
same,TGI,NCI-H460 lung,> 100 µM
same,TGI,NCI/ADR-RES ovarian,> 100 µM
same,TGI,OVCAR-3 ovarian,> 100 µM
same,TGI,OVCAR-4 ovarian,> 100 µM
same,TGI,OVCAR-5 ovarian,> 100 µM
same,TGI,OVCAR-8 ovarian,> 100 µM
same,TGI,PC-3 prostate,> 100 µM
same,TGI,RPMI-8226 leukemia,> 100 µM
same,TGI,RXF 393 renal,> 100 µM
same,TGI,SF-268 CNS,> 100 µM
same,TGI,SF-295 CNS,> 100 µM
same,TGI,SK-MEL-2 melanoma,> 100 µM
same,TGI,SK-MEL-28 melanoma,> 100 µM
same,TGI,SK-MEL-5 melanoma,> 100 µM
same,TGI,SK-OV-3 ovarian,> 100 µM
same,TGI,SN12C renal,> 100 µM
same,TGI,SNB-19 CNS,> 100 µM
same,TGI,SNB-75 CNS,> 100 µM
same,TGI,SR leukemia,> 100 µM
same,TGI,SW-620 colon,> 100 µM
same,TGI,T-47D breast,> 100 µM
same,TGI,TK-10 renal,> 100 µM
same,TGI,U251 CNS,> 100 µM
same,TGI,UACC-257 melanoma,> 100 µM
same,TGI,UACC-62 melanoma,> 100 µM
same,TGI,UO-31 renal,> 100 µM
Oc1ccc(-c2cn3ccsc3n2)cc1O,GI50,786-0 renal,36.6 µM
same,TGI,786-0 renal,> 100 µM
same,GI50,A498 renal,25.9 µM
same,TGI,A498 renal,83.6 µM
same,GI50,A549 NSCLC,72.8 µM
same,TGI,A549 NSCLC,> 100 µM
same,GI50,ACHN renal,22 µM
same,TGI,ACHN renal,56.3 µM
same,GI50,BT-549 breast,10.2 µM
same,TGI,BT-549 breast,30.7 µM
same,GI50,CAKI-1 renal,26.3 µM
same,TGI,CAKI-1 renal,> 100 µM
same,GI50,CCRF-CEM leukemia,4.41 µM
same,TGI,CCRF-CEM leukemia,29.6 µM
same,GI50,COLO 205 colon,29.9 µM
same,TGI,COLO 205 colon,> 100 µM
same,GI50,DU-145 prostate,28.7 µM
same,TGI,DU-145 prostate,> 100 µM
same,GI50,EKVX NSCLC,16.7 µM
same,TGI,EKVX NSCLC,38.9 µM
same,GI50,HCC-2998 colon,78 µM
same,TGI,HCC-2998 colon,> 100 µM
same,GI50,HCT-116 colon,18.1 µM
same,TGI,HCT-116 colon,37.8 µM
same,GI50,HCT-15 colon,37.8 µM
same,TGI,HCT-15 colon,> 100 µM
same,GI50,HOP-62 NSCLC,43.2 µM
same,TGI,HOP-62 NSCLC,> 100 µM
same,GI50,HOP-92 NSCLC,23 µM
same,TGI,HOP-92 NSCLC,78.5 µM
same,GI50,HS 578T breast,0.203 µM
same,TGI,HS 578T breast,22.4 µM
same,GI50,HT29 colon,29.5 µM
same,TGI,HT29 colon,> 100 µM
same,GI50,IGROV1 ovarian,21.3 µM
same,TGI,IGROV1 ovarian,> 100 µM
same,GI50,KM12 colon,27.7 µM
same,TGI,KM12 colon,> 100 µM
same,GI50,LOX IMVI melanoma,18.1 µM
same,TGI,LOX IMVI melanoma,41.7 µM
same,GI50,M14 melanoma,26.1 µM
same,TGI,M14 melanoma,75.3 µM
same,GI50,MALME-3M melanoma,30.8 µM
same,TGI,MALME-3M melanoma,84.4 µM
same,GI50,MCF7 breast,18.3 µM
same,TGI,MCF7 breast,> 100 µM
same,GI50,MDA-MB-231 breast,17.6 µM
same,TGI,MDA-MB-231 breast,44.2 µM
same,GI50,MDA-MB-435,22.1 µM
same,TGI,MDA-MB-435,47.8 µM
same,GI50,MOLT-4 leukemia,11 µM
same,TGI,MOLT-4 leukemia,55.4 µM
same,GI50,NCI-H226 lung,20.9 µM
same,TGI,NCI-H226 lung,60.2 µM
same,GI50,NCI-H23 lung,46.3 µM
same,TGI,NCI-H23 lung,> 100 µM
same,GI50,NCI-H460 lung,45.8 µM
same,TGI,NCI-H460 lung,> 100 µM
same,GI50,NCI-H522 lung,11.5 µM
same,TGI,NCI-H522 lung,33.2 µM
same,GI50,NCI/ADR-RES ovarian,> 100 µM
same,TGI,NCI/ADR-RES ovarian,> 100 µM
same,GI50,OVCAR-3 ovarian,15.6 µM
same,TGI,OVCAR-3 ovarian,46.4 µM
same,GI50,OVCAR-4 ovarian,32.7 µM
same,TGI,OVCAR-4 ovarian,> 100 µM
same,GI50,OVCAR-5 ovarian,38.9 µM
same,TGI,OVCAR-5 ovarian,> 100 µM
same,GI50,OVCAR-8 ovarian,35.8 µM
same,TGI,OVCAR-8 ovarian,> 100 µM
same,GI50,PC-3 prostate,21.7 µM
same,TGI,PC-3 prostate,> 100 µM
same,GI50,RPMI-8226 leukemia,12.1 µM
same,TGI,RPMI-8226 leukemia,65.4 µM
same,GI50,RXF 393 renal,78 µM
same,TGI,RXF 393 renal,> 100 µM
same,GI50,SF-268 CNS,27.8 µM
same,TGI,SF-268 CNS,> 100 µM
same,GI50,SF-295 CNS,69.6 µM
same,TGI,SF-295 CNS,> 100 µM
same,GI50,SF-539 CNS,19.7 µM
same,TGI,SF-539 CNS,79.6 µM
same,GI50,SK-MEL-2 melanoma,35.1 µM
same,TGI,SK-MEL-2 melanoma,> 100 µM
same,GI50,SK-MEL-28 melanoma,32.9 µM
same,TGI,SK-MEL-28 melanoma,> 100 µM
same,GI50,SK-MEL-5 melanoma,10.5 µM
same,TGI,SK-MEL-5 melanoma,26.7 µM
same,GI50,SK-OV-3 ovarian,> 100 µM
same,TGI,SK-OV-3 ovarian,> 100 µM
same,GI50,SN12C renal,18.5 µM
same,TGI,SN12C renal,37.8 µM
same,GI50,SNB-19 CNS,49.9 µM
same,TGI,SNB-19 CNS,> 100 µM
same,GI50,SNB-75 CNS,55.1 µM
same,TGI,SNB-75 CNS,> 100 µM
same,GI50,SR leukemia,10.6 µM
same,TGI,SR leukemia,41.4 µM
same,GI50,SW-620 colon,11.5 µM
same,TGI,SW-620 colon,70.5 µM
same,GI50,T-47D breast,32.4 µM
same,TGI,T-47D breast,> 100 µM
same,GI50,TK-10 renal,63.1 µM
same,TGI,TK-10 renal,> 100 µM
same,GI50,U251 CNS,21.5 µM
same,TGI,U251 CNS,46.7 µM
same,GI50,UACC-257 melanoma,> 100 µM
same,TGI,UACC-257 melanoma,> 100 µM
same,GI50,UACC-62 melanoma,19.6 µM
same,TGI,UACC-62 melanoma,43.9 µM
same,GI50,UO-31 renal,16 µM
same,TGI,UO-31 renal,> 100 µM
